Here are results for 25 molecules from US8551984B2, “Aminopyrimidines as SYK inhibitors” (Merck Sharp & Dohme Corp., priority 2009, dated 2013).

Some results are limits rather than exact numbers.

For the first test, the target named is recombinant human SYK (GST-hSYK fusion protein) (Homo sapiens, UniProt P43405). As to the kind of experiment: biochemical. The settings on record: rhSYK Activity (IC50), recombinant human GST-SYK 5 pM, ATP 25 μM, biotinylated substrate peptide 250 nM, HTRF, 10-dose titration. A general note: In TR-FRET formats the signal depends on donor and acceptor labels being close together.
Source text: Homogeneous Time-Resolved Fluorescence (HTRF) Assay for the Recombinant Human SYK Enzyme:
In general, IC50 refers to the point on the concentration scale where inhibition reaches its midpoint. Turning to `Cc1cc(Nc2nccc(C(F)(F)F)n2)cc(-c2cnc(-c3cn[nH]c3)s2)c1` [Example 114, N-{3-methyl-5-[2-(1H-pyrazol-4-yl)-1,3-thiazol-5-yl]phenyl}-4-(trifluoromethyl)pyrimidin-2-amine], the IC50 was less than 100 nM.

Take `Cc1cc(Nc2nccc(C(F)(F)F)n2)cc(-c2cnc(-c3cnn4c3CCCC4)s2)c1` [Example 114-1]: the IC50 was less than 100 nM.

As for `Cc1cc(Nc2nccc(C(F)(F)F)n2)cc(-c2cnc(-c3cccnc3)s2)c1` [Example 114-3], the IC50 is less than 100 nM.

On to `Cc1cc(Nc2nccc(C(F)(F)F)n2)cc(-c2cnc(-c3ccncc3)s2)c1` [Example 114-4], for which the IC50 was less than 100 nM.

In the case of `Cc1cc(Nc2nccc(C(F)(F)F)n2)cc(-c2cnc(-c3cccs3)s2)c1` [Example 114-5], the IC50 lay within 100 to 1000 nM.

Turning to `Cc1cc(Nc2nccc(C(F)(F)F)n2)cc(-c2cnc(-c3ccsc3)s2)c1` [Example 114-6], the IC50 lay within 100 to 1000 nM.

For the molecule `Cc1cc(Nc2nccc(C(F)(F)F)n2)cc(-c2cnc(-c3ccco3)s2)c1` [Example 114-7], the IC50 is less than 100 nM.

In the case of `Cc1cc(Nc2nccc(C(F)(F)F)n2)cc(-c2cnc(-c3ccc[nH]3)s2)c1` [Example 114-8], the IC50 is less than 100 nM.

For the molecule `Cc1cc(Nc2nccc(C(F)(F)F)n2)cc(-c2cnc(-c3cnn(CCO)c3)s2)c1` [Example 115, 2-{4-[5-(3-methyl-5-{[4-(trifluoromethyl)pyrimidin-2-yl]amino}phenyl)-1,3-thiazol-2-yl]-1H-pyrazol-1-yl}ethanol], the IC50 was less than 100 nM.

Still in this test, the particulars now being: rhSYK Activity, Table 113B.
On to `Cc1cc(Nc2nccc(C(F)(F)F)n2)cc(-c2cnc(C3(O)CC(C)C(C(=O)OC(C)C)C(C)C3)s2)c1` (stereo not shown) [Example 113B-26], for which the IC50 is 1000 to 10000 nM.

In the case of `Cc1cc(Nc2nccc(C(F)(F)F)n2)cc(-c2cnc(C3(O)CC(C)C(C(=O)OC(C)C)C(C)C3)s2)c1` (stereo not shown) [Example 113B-27], the IC50 was 100 to 1000 nM.

For the molecule `Cc1cc(Nc2nccc(C)n2)cc(-c2cnc(C3(O)C(C)CC(C(=O)O)CC3C)s2)c1` (stereo not shown) [Example 113B-28], the IC50 is less than 100 nM.

For the molecule `CCOC(=O)C1CC(C)C(O)(c2ncc(-c3cc(C)cc(Nc4nccc(C)n4)c3)s2)C(C)C1` (stereo not shown) [Example 113B-29], the IC50 is less than 100 nM.

For `Cc1cc(Nc2nccc(C(F)(F)F)n2)cc(-c2cnc(C3(O)C(C)CC(C(=O)O)CC3C)s2)c1` (stereo not shown) [Example 113B-30], the IC50 was less than 100 nM.

In the case of `CCOC(=O)C1CC(C)C(O)(c2ncc(-c3cc(C)cc(Nc4nccc(C(F)(F)F)n4)c3)s2)C(C)C1` (stereo not shown) [Example 113B-31], the IC50 was less than 100 nM.

Still in this test, the particulars now being: rhSYK Activity, Table 113D, upper part.
For `C=C(c1ccc(C(=O)O)cc1)c1ncc(-c2cc(C)cc(Nc3nccc(C(F)(F)F)n3)c2)s1` [Example 113D-1], the IC50 was less than 100 nM.

Take `C=C(c1ccc(C(=O)OC)cc1)c1ncc(-c2cc(C)cc(Nc3nccc(C(F)(F)F)n3)c2)s1` [Example 113D-2]: the IC50 was 100 to 1000 nM.

Consider `Cc1cc(Nc2nccc(C(F)(F)F)n2)cc(-c2cnc(C3(c4ccc(C(=O)O)cc4)CC3)s2)c1` [Example 113D-3], for which the IC50 was less than 100 nM.

As to `Cc1cc(Nc2nccc(C(F)(F)F)n2)cc(-c2cnc(C(C)(C)c3ccc(C(=O)O)cc3)s2)c1` [Example 113D-5], the IC50 is less than 100 nM.

On to `Cc1cc(Nc2nccc(C(F)(F)F)n2)cc(-c2cnc(C(F)(F)c3ccc(C(=O)O)cc3)s2)c1` [Example 113D-7], for which the IC50 was less than 100 nM.

In the case of `COC(=O)c1ccc(C(C)(C)c2ncc(-c3cc(C)cc(Nc4nccc(C(F)(F)F)n4)c3)s2)cc1` [Example 113D-9], the IC50 lay within 100 to 1000 nM.

The test is the same for the next values; noted with them: rhSYK Activity, Table 115.
For `Cc1cc(Nc2nccc(C(F)(F)F)n2)cc(-c2cnc(-c3cnn(C4CCOCC4)c3)s2)c1` [Example 115-1], the IC50 is less than 100 nM.

On to `Cc1cc(Nc2nccc(C(F)(F)F)n2)cc(-c2cnc(-c3cnn(CCC#N)c3)s2)c1` [Example 115-2], for which the IC50 is less than 100 nM.

With `Cc1cc(Nc2nccc(C(F)(F)F)n2)cc(-c2cnc(-c3cnn(CCCO)c3)s2)c1` [Example 115-3], the IC50 was less than 100 nM.

On to `Cc1cc(Nc2nccc(C(F)(F)F)n2)cc(-c2cnc(-c3cnn(C[C@@H](O)CO)c3)s2)c1` [Example 115-4], for which the IC50 is less than 100 nM.
